Experiments:
Format in all cases: in vivo
[1] = system: velvetleaf (Abutilon theophrasti); assay: Test G Pre-Emergence Protocol; details: Abutilon theophrasti, pre-emergence, 312 h, evaluated after 13 days; for pest or weed control at 15.625 g/ha: 15.625 g ai/ha; for pest or weed control at 15.625 g/ha / pest or weed control at 250 g/ha: read-out: Velvetleaf damage rating (100=total damage to plant; 0=no damage to plant); for pest or weed control at 62.5 g/ha: 62.5 g ai/ha, 100=total damage to plant, 0=no damage to plant, read-out: plant damage rating, Velvetleaf; for pest or weed control at 250 g/ha: 250 g ai/ha
Method in brief: (§1)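 Spraying took place one day after sowing, at 15.625, 62.5 or 250 g/ha, using an acetone/water (50:50) spray solution containing 0.5% Tween 20. Plants were kept under glasshouse conditions (24/16 °C, 14 h light, 65% humidity, watered twice daily), and injury was rated 0–100 at day 13.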

[2] = system: ivy-leaved morning glory (Ipomoea hederacea); assay: Test G Pre-Emergence Protocol; details: Ipomoea, pre-emergence, 312 h, evaluated after 13 days; for pest or weed control at 15.625 g/ha: 15.625 g ai/ha, read-out: Morning-glory, Ivy-leaved damage rating (100=total damage to plant; 0=no damage to plant); for pest or weed control at 62.5 g/ha: 62.5 g ai/ha, 100=total damage to plant, 0=no damage to plant, read-out: plant damage rating, Morningglory, Ivy-leaved; for pest or weed control at 250 g/ha: 250 g ai/ha, read-out: Morningglory, Ivy-leaved damage rating (100=total damage to plant; 0=no damage to plant)
Method in brief: as §1

corn (Zea mays) [3] = assay: Test G Pre-Emergence Protocol; details: Zea mays, pre-emergence, 312 h, evaluated after 13 days; for plant injury at 15.625 g/ha: 15.625 g ai/ha; for plant injury at 15.625 g/ha / plant injury at 250 g/ha: read-out: Corn damage rating (100=total damage to plant; 0=no damage to plant); for plant injury at 62.5 g/ha: 62.5 g ai/ha, 100=total damage to plant, 0=no damage to plant, read-out: plant damage rating, Corn; for plant injury at 250 g/ha: 250 g ai/ha
Method in brief: as §1

[4] = system: barnyardgrass (Echinochloa crus-galli); assay: Test G Pre-Emergence Protocol; details: Echinochloa crus-galli, pre-emergence, 312 h, evaluated after 13 days; for pest or weed control at 15.625 g/ha: 15.625 g ai/ha, read-out: Barnyard grass damage rating (100=total damage to plant; 0=no damage to plant); for pest or weed control at 62.5 g/ha: 62.5 g ai/ha, 100=total damage to plant, 0=no damage to plant, read-out: plant damage rating, Barnyardgrass; for pest or weed control at 250 g/ha: 250 g ai/ha, read-out: Barnyardgrass damage rating (100=total damage to plant; 0=no damage to plant)
Method in brief: as §1

[5] = system: redroot pigweed (Amaranthus retroflexus); assay: Test G Pre-Emergence Protocol; details: Amaranthus retroflexus, pre-emergence, 312 h, evaluated after 13 days; for pest or weed control at 15.625 g/ha: 15.625 g ai/ha; for pest or weed control at 15.625 g/ha / pest or weed control at 250 g/ha: read-out: Pigweed, Redroot damage rating (100=total damage to plant; 0=no damage to plant); for pest or weed control at 62.5 g/ha: 62.5 g ai/ha, 100=total damage to plant, 0=no damage to plant, read-out: plant damage rating, Pigweed, Redroot; for pest or weed control at 250 g/ha: 250 g ai/ha
Method in brief: as §1

[6] = system: giant foxtail (Setaria faberi); assay: Test G Pre-Emergence Protocol; details: Setaria faberi, pre-emergence, 312 h, evaluated after 13 days; for pest or weed control at 15.625 g/ha: 15.625 g ai/ha; for pest or weed control at 15.625 g/ha / pest or weed control at 250 g/ha: read-out: Foxtail, Giant damage rating (100=total damage to plant; 0=no damage to plant); for pest or weed control at 62.5 g/ha: 62.5 g ai/ha, 100=total damage to plant, 0=no damage to plant, read-out: plant damage rating, Foxtail, Giant; for pest or weed control at 250 g/ha: 250 g ai/ha
Method in brief: as §1

[7] = system: velvetleaf (Abutilon theophrasti); assay: Test G Post-Emergence Protocol; details: Abutilon theophrasti, post-emergence, 312 h; for pest or weed control at 15.625 g/ha: 15.625 g ai/ha, evaluated after 13 days (100=total damage to plant; 0=no damage to plant), read-out: Velvetleaf damage rating; for pest or weed control at 62.5 g/ha: 62.5 g ai/ha, read-out: Velvetleaf damage rating (100=total damage to plant; 0=no damage to plant); for pest or weed control at 62.5 g/ha / pest or weed control at 250 g/ha: evaluated after 13 days; for pest or weed control at 250 g/ha: 250 g ai/ha, read-out: damage to plant, Velvetleaf (100=total damage to plant; 0=no damage to plant)
Method in brief: (§2)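 Foliar application was made 8 days after sowing, using an aqueous spray of the active in acetone/water (50:50) with 0.5% Tween 20, at doses of 15.625, 62.5 or 250 g/ha. Injury was assessed 13 days later, where 100 meant the plant was fully damaged.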

[8] = system: ivy-leaved morning glory (Ipomoea hederacea); assay: Test G Post-Emergence Protocol; details: Ipomoea, post-emergence, 312 h; for pest or weed control at 15.625 g/ha: 15.625 g ai/ha, evaluated after 13 days (100=total damage to plant; 0=no damage to plant), read-out: Morningglory, Ivy-leaved damage rating; for pest or weed control at 62.5 g/ha: 62.5 g ai/ha, read-out: Morningglory, Ivy-leaved damage rating (100=total damage to plant; 0=no damage to plant); for pest or weed control at 62.5 g/ha / pest or weed control at 250 g/ha: evaluated after 13 days; for pest or weed control at 250 g/ha: 250 g ai/ha, read-out: damage to plant, Morningglory, Ivy-leaved (100=total damage to plant; 0=no damage to plant)
Method in brief: as §2

corn (Zea mays) [9] = assay: Test G Post-Emergence Protocol; details: Zea mays, post-emergence, 312 h; for plant injury at 15.625 g/ha: 15.625 g ai/ha, evaluated after 13 days (100=total damage to plant; 0=no damage to plant), read-out: Corn damage rating; for plant injury at 62.5 g/ha: 62.5 g ai/ha, read-out: Corn damage rating (100=total damage to plant; 0=no damage to plant); for plant injury at 62.5 g/ha / plant injury at 250 g/ha: evaluated after 13 days; for plant injury at 250 g/ha: 250 g ai/ha, read-out: damage to plant, Corn (100=total damage to plant; 0=no damage to plant)
Method in brief: as §2

[10] = system: barnyardgrass (Echinochloa crus-galli); assay: Test G Post-Emergence Protocol; details: Echinochloa crus-galli, post-emergence, 312 h; for pest or weed control at 15.625 g/ha: 15.625 g ai/ha, evaluated after 13 days (100=total damage to plant; 0=no damage to plant), read-out: Barnyardgrass damage rating; for pest or weed control at 62.5 g/ha: 62.5 g ai/ha, read-out: Barnyardgrass damage rating (100=total damage to plant; 0=no damage to plant); for pest or weed control at 62.5 g/ha / pest or weed control at 250 g/ha: evaluated after 13 days; for pest or weed control at 250 g/ha: 250 g ai/ha, read-out: damage to plant, Barnyardgrass (100=total damage to plant; 0=no damage to plant)
Method in brief: as §2

[11] = system: redroot pigweed (Amaranthus retroflexus); assay: Test G Post-Emergence Protocol; details: Amaranthus retroflexus, post-emergence, 312 h; for pest or weed control at 15.625 g/ha: 15.625 g ai/ha, evaluated after 13 days (100=total damage to plant; 0=no damage to plant), read-out: Pigweed, Redroot damage rating; for pest or weed control at 62.5 g/ha: 62.5 g ai/ha, read-out: Pigweed, Redroot damage rating (100=total damage to plant; 0=no damage to plant); for pest or weed control at 62.5 g/ha / pest or weed control at 250 g/ha: evaluated after 13 days; for pest or weed control at 250 g/ha: 250 g ai/ha, read-out: damage to plant, Pigweed, Redroot (100=total damage to plant; 0=no damage to plant)
Method in brief: as §2

[12] = system: giant foxtail (Setaria faberi); assay: Test G Post-Emergence Protocol; details: Setaria faberi, post-emergence, 312 h; for pest or weed control at 15.625 g/ha: 15.625 g ai/ha, evaluated after 13 days (100=total damage to plant; 0=no damage to plant), read-out: Foxtail, Giant damage rating; for pest or weed control at 62.5 g/ha: 62.5 g ai/ha, read-out: Foxtail, Giant damage rating (100=total damage to plant; 0=no damage to plant); for pest or weed control at 62.5 g/ha / pest or weed control at 250 g/ha: evaluated after 13 days; for pest or weed control at 250 g/ha: 250 g ai/ha, read-out: damage to plant, Foxtail, Giant (100=total damage to plant; 0=no damage to plant)
Method in brief: as §2

SMILES | pest or weed control at 15.625 g/ha [1] [%] | pest or weed control at 62.5 g/ha [1] [%] | pest or weed control at 250 g/ha [1] [%] | pest or weed control at 15.625 g/ha [2] [%] | pest or weed control at 62.5 g/ha [2] [%] | pest or weed control at 250 g/ha [2] [%] | plant injury at 15.625 g/ha (corn (Zea mays) [3]) [%] | plant injury at 62.5 g/ha (corn (Zea mays) [3]) [%] | plant injury at 250 g/ha (corn (Zea mays) [3]) [%] | pest or weed control at 15.625 g/ha [4] [%] | pest or weed control at 62.5 g/ha [4] [%] | pest or weed control at 250 g/ha [4] [%] | pest or weed control at 15.625 g/ha [5] [%] | pest or weed control at 62.5 g/ha [5] [%] | pest or weed control at 250 g/ha [5] [%] | pest or weed control at 15.625 g/ha [6] [%] | pest or weed control at 62.5 g/ha [6] [%] | pest or weed control at 250 g/ha [6] [%] | pest or weed control at 15.625 g/ha [7] [%] | pest or weed control at 62.5 g/ha [7] [%] | further results
Cc1c(NC(=O)[C@H]2C(=O)N(C)C[C@@H]2c2ccc(C(F)(F)F)cc2)cccc1C(F)(F)F (racemic) [Compound 1424] | 0 | 0 | 0 | 0 | 0 | 0 | 0 | 0 | 0 | 0 | 10 | 50 | 0 | 0 | 0 | 0 | 40 | 70 | 0 | 0 | pest or weed control at 250 g/ha [7]: 0%; pest or weed control at 15.625 g/ha [8]: 0%; pest or weed control at 62.5 g/ha [8]: 0%; pest or weed control at 250 g/ha [8]: 0%; plant injury at 15.625 g/ha (corn (Zea mays) [9]): 0%; plant injury at 62.5 g/ha (corn (Zea mays) [9]): 0%; plant injury at 250 g/ha (corn (Zea mays) [9]): 10%; pest or weed control at 15.625 g/ha [10]: 0%; pest or weed control at 62.5 g/ha [10]: 0%; pest or weed control at 250 g/ha [10]: 10%; pest or weed control at 15.625 g/ha [11]: 10%; pest or weed control at 62.5 g/ha [11]: 20%; pest or weed control at 250 g/ha [11]: 20%; pest or weed control at 15.625 g/ha [12]: 0%; pest or weed control at 62.5 g/ha [12]: 0%; pest or weed control at 250 g/ha [12]: 20%
C=CCc1c(Cl)cccc1NC(=O)[C@H]1C(=O)N(C)C[C@H]1c1ccc(C(F)(F)F)cc1 (racemic) [Compound 1439] | 0 | 0 | 0 | 0 | 0 | 0 | 0 | 0 | 0 | 0 | 0 | 40 | 0 | 0 | 0 | 0 | 0 | 50 | 0 | 0 | pest or weed control at 250 g/ha [7]: 0%; pest or weed control at 15.625 g/ha [8]: 0%; pest or weed control at 62.5 g/ha [8]: 0%; pest or weed control at 250 g/ha [8]: 0%; plant injury at 15.625 g/ha (corn (Zea mays) [9]): 10%; plant injury at 62.5 g/ha (corn (Zea mays) [9]): 10%; plant injury at 250 g/ha (corn (Zea mays) [9]): 10%; pest or weed control at 15.625 g/ha [10]: 0%; pest or weed control at 62.5 g/ha [10]: 0%; pest or weed control at 250 g/ha [10]: 10%; pest or weed control at 15.625 g/ha [11]: 0%; pest or weed control at 62.5 g/ha [11]: 0%; pest or weed control at 250 g/ha [11]: 40%; pest or weed control at 15.625 g/ha [12]: 0%; pest or weed control at 62.5 g/ha [12]: 20%; pest or weed control at 250 g/ha [12]: 60%
